These results are taken from patent publication US20250041284A1, “TREATMENT OF NEUROLOGICAL DISORDERS” (Praxis Precision Medicines, Inc., priority 2022, published 2025).

Data set [1] concerns various NaV isoforms and orthologs. As to the kind of experiment: ATX-II induced persistent INa at NaV isoforms and orthologs. The format is cell-based. The note with it: in words, FIG. 8C.
The subject of data set [2] is MES-induced seizures in male CD-1 mice. In words: Maximal electroshock (MES) induced seizure, latency (Example 3). In kind it is in vivo, mouse. The method, then: (§1) Food and water were available ad libitum.
Dosing solutions were prepared on each experiment day. […] VPA was prepared in saline (Vehicle 1). All solutions were protected from light. All compounds and vehicles were dosed at 10 ml/kg.
The MES test was carried out over two days with half of the mice from each treatment group being tested on each day. Mice were brought to the test room at least one hour before the start of the experiment. […] Mice were randomly assigned into one of the six treatment groups.
Animals were p.o. (oral) administered Compound 1 or 35% HPBCD (Vehicle 2) 30 minutes prior to the MES test or i.p. administered VPA or saline (Vehicle 1) 30 minutes prior to the MES test.
A Grass S88x (Grass Technologies of Astro-Med, Inc., West Warwick, RI) Stimulus Isolation Unit (A385, WPI Inc., USA) was set to deliver a 50 mA square-wave stimulus, with a 0.8 second duration, a pulse width of 10 msec, and a frequency of 50 Hz. A pair of custom stainless steel electrodes were soaked in 0.2% Agar, and then the subject received bilateral transauricular stimulation through ear-clip electrodes. During the stimulation, mice were manually restrained. They were then released into the observation cage for convulsion observation for 60 seconds immediately after stimulation. Each mouse was observed continuously by individuals blinded to treatment conditions and results were recorded.
Anti-seizure assessment endpoints were: (1) latency of hindlimb tonic flexion; (2) latency of hindlimb tonic extension; (3) total #hindlimb tonic flexions; (4) total #hindlimb tonic extensions; (5) latency to death; and (6) mortality rate.
Following the experiment, mice were anesthetized with CO2 and terminal plasma and brain tissue samples were collected. […] The supernatant plasma was pipetted into Eppendorf tubes.
An aliquot of 20 μL unknown sample, calibration standard, quality control, dilute quality control, single blank and double blank sample was added to a 1.5 mL tube. […]
From these fitted curves, ED50 and EC50 values were calculated.

For a further data set, the target named is T1, hNaV1.6 (Homo sapiens, UniProt Q9UQD0).
T1 construct: expressed in transfected cells; host or cells: HEK cells
In words: Peak INa voltage-dependent block (VDB), automated patch clamp in HEK cells. The format is cell-based.

The target in the next data set is T2, human NaV1.6 (Homo sapiens, UniProt Q9UQD0).
T2 construct: HEK-293 cell lines stably expressing human NaV1.6 (NP_055006) were used; expressed in transfected cells
In words: Peak INa tonic block (TB), automated patch clamp in HEK cells. The format is cell-based.

The next data set is described as follows: in vivo. The following applies: rat.
Data set [3] relates to spontaneous locomotor activity in male CD-1 mice. In words: Spontaneous locomotor activity (sLMA) (Example 4). In kind it is in vivo, mouse. The method, then: as §1
(§2) Dosing solutions were prepared on each experiment day. […] All solutions were protected from light. Samples from dosing solutions were stored at 4° C.
(§3) The sLMA test was carried out over two days. Half of the mice from each treatment group was tested on each day.
(§4) Animals were p.o. administered Compound 1 or 35% HPBCD (vehicle) 30 minutes prior to the sLMA test.
(§5) All mice were anesthetized with CO2. […] The supernatant plasma was pipetted into Eppendorf tubes.
(§6) An aliquot of 20 μL unknown sample, calibration standard, quality control, dilute quality control, single blank and double blank sample was added to a 1.5 mL tube. Each sample (except the double blank) was quenched with 300 μL IS solution (double blank sample was quenched with 300 μL ACN), and then the mixture was vortex-mixed well for at least 15 seconds and centrifuged for 15 minutes at 12000 g, 4° C. 65 μL supernatant was transferred to a 96-well plate and centrifuged for 5 minutes at 3220 g, 4° C. Then 3 μL supernatant was directly injected for LC-MS/MS analysis.
(§7) Brain homogenate was prepared by homogenizing brain tissue with 5 volumes (w:v) of cold 15 mM PBS/MeOH (V:V, 2:1). An aliquot of 40 μL unknown sample, calibration standard, quality control, dilute quality control, single blank and double blank sample was added to a 1.5 mL tube. Each sample (except the double blank) was quenched with 600 μL IS solution (double blank sample was quenched with 600 μL ACN), and then the mixture was vortex-mixed well for at least 15 seconds and centrifuged for 15 minutes at 12000 g, 4° C. 65 μL supernatant was transferred to a 96-well plate and centrifuged for 5 minutes at 3220 g, 4° C. Then 3 μL of the supernatant was directly injected for LC-MS/MS analysis.

A short description of data set [4]: Spontaneous locomotor activity (sLMA) (Example 4). In kind it is in vivo, mouse. The following applies: male, CD-1, mouse, in vivo, po, 30 min post-dose, 30-minute test. The method, then: as §1, §2, §3, §4, §5, §6, §7

Entries after “also recorded” stand apart in the source; their conditions may differ.

T2 sequence (Q9UQD0 whole entry): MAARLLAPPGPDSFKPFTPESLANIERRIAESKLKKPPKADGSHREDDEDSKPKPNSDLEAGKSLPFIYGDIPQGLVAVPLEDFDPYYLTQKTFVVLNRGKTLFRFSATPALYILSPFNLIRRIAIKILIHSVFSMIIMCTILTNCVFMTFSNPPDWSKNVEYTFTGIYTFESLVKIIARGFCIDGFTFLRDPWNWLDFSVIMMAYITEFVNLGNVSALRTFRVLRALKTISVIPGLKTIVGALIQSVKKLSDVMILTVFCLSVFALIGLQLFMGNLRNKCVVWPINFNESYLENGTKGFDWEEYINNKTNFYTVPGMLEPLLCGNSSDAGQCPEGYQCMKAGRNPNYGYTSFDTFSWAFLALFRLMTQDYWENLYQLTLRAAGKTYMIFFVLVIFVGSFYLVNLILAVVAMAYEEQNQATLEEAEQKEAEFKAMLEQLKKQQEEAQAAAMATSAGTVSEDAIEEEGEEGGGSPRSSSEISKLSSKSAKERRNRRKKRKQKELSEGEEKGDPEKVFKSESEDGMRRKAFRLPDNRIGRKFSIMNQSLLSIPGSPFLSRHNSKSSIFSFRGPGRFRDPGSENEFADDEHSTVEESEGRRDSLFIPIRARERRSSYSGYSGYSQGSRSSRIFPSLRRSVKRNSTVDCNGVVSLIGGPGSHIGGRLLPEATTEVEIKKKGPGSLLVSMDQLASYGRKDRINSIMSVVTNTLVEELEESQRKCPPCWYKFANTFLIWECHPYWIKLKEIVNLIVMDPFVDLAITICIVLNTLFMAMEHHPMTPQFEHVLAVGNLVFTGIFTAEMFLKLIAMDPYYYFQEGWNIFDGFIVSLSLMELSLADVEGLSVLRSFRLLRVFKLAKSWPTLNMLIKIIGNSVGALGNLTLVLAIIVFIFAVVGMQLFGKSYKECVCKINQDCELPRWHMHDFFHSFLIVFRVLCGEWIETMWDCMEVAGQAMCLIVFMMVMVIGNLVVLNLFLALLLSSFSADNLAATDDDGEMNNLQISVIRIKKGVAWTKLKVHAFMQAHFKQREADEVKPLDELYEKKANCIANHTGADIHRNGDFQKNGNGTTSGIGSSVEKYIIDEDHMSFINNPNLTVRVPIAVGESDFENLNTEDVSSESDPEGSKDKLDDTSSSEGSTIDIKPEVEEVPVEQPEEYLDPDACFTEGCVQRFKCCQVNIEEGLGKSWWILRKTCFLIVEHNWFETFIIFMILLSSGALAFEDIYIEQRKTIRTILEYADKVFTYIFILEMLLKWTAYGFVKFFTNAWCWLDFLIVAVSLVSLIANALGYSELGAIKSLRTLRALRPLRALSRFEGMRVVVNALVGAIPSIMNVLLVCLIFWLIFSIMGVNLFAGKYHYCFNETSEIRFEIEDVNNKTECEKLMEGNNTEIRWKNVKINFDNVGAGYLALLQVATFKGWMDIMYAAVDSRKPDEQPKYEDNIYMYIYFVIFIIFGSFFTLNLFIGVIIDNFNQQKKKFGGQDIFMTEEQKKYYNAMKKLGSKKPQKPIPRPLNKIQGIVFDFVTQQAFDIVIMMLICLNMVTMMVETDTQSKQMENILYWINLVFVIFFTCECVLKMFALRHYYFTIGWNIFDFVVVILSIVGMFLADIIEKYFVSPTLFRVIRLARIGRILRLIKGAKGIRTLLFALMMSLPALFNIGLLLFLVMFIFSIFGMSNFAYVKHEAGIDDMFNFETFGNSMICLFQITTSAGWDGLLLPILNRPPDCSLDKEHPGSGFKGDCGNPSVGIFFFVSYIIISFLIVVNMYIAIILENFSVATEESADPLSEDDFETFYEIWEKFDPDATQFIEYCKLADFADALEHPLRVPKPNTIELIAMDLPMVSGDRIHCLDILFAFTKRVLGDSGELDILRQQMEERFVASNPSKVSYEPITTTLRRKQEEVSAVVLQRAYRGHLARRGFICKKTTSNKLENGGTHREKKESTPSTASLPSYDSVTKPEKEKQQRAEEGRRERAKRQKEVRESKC
T1 sequence (Q9UQD0 whole entry): as above

Turning to `CCOC(F)(F)c1nnc2ccc(-c3cnc(OCC(F)(F)F)c(F)c3)cn12` [Compound 1], the “inhibition of ATX-II induced persistent INa at multiple NaV isoforms and orthologs” value in data set [1] was “inhibits ATX-II induced persistent INa expressed by multiple NaV isoforms and orthologs”. Further, the “latency to seizures following bilateral transauricular stimulation” value in data set [2] (1 mg/kg p.o.) is on record as “significantly increased latency to seizures”. Further, the “block of evoked seizures (MES)” value in data set [2] (10 mg/kg) is “completely blocked evoked seizures”. The same compound displayed an ED50 in data set [2] (Mus musculus, po, 30 min before MES, latency to seizures) of 0.67 mg/kg. The “Ratio to Pers. INa (Peak INa VDB)” value at hNaV1.6 (VDB IC50 / persistent INa IC50) was determined as 0.56. For the same compound, at hNaV1.6 (voltage-dependent block), the “Peak INa VDB Hill slope” value is listed as “(1.0)”. Also, the IC50 against hNaV1.6 (voltage-dependent block, Vm inactivation V1/2) came to 0.072 µM; at human NaV1.6 (tonic block, Vm -120 mV, 0.2 Hz) it was 8.71 µM. In addition, the “Ratio to Pers. INa (Peak INa TB)” value on human NaV1.6 (peak INa TB IC50 / persistent INa IC50) is given as 68. Also, at human NaV1.6 (tonic block), the “Peak INa TB Hill slope” value is given as “(1.0)”. In “in vivo”, this compound showed an AUC(0-inf) of 7500 ng·h/mL. In data set [3] (10 and 20 mg/kg p.o.), the “total traveling distance in the 30-minute sLMA test” value is on record as “significantly reduced total traveling distance; also recorded: significantly reduced locomotor activity”. Moreover, in data set [3] (p.o., 30 min post-dose, 30-minute test), the “sLMA TD50” value came to 10.27 mg/kg. Moreover, in data set [3] (plasma concentration), the “sLMA plasma TC50” value is 1123 ng/g. Also, in data set [4], the TD50 is 10.3 mg/kg.
